Some test systems named below: HT-29; SNB-19; NCI/ADR-RES; A549; OVCAR-8; NCI-H460; HCT-15; EKVX; HOP-92; BT-549; NCI-H23; MDA-MB-435; HCT-116; SF-539; OVCAR-4; RXF 393; SK-MEL-5; IGROV-1; Malme-3M; MOLT-4.
Experiment in all cases: NCI tumour cell line growth inhibition, 48 h

We go through ten molecules from ChEMBL document CHEMBL1201862, “PubChem BioAssay data set” (2004).

The structures appear in SMILES notation.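 Tested at 5 concentrations; 48 h exposure; 96-well plates; endpoints linearly interpolated, else capped at highest concentration. At the GI50, growth is halved.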 Calls of active or inactive are those of the source. Rule as the data show it: active = GI50 up to about 1.1 µM and inactive = higher.

Take `OC(CC(O)(C(F)(F)Cl)C(F)(F)Cl)c1ccccc1` (stereo not given): the GI50 in the test on HT-29, in the test on SNB-19, in the test on NCI/ADR-RES, in the test with A549, with OVCAR-8 and in the test on NCI-H460 was > 10 µM (inactive) throughout. For the same molecule, the GI50 in the test with HCT-15 is > 10 µM; in the test on EKVX it was > 10 µM (inactive); with HOP-92, > 10 µM (inactive); in the test with BT-549 it was > 10 µM (inactive); in the test on NCI-H23 it was > 10 µM (inactive); in the test on MDA-MB-435, < 0.001 µM (active). Moreover, the GI50 was > 10 µM (inactive) in the test with HCT-116; > 10 µM (inactive) in the test with SF-539; > 10 µM (inactive) with OVCAR-4; > 10 µM (inactive) in the test on RXF 393; 0.00809 µM (active) in the test with SK-MEL-5; 0.0258 µM (active) in the test with IGROV-1. The GI50 with Malme-3M and in the test on MOLT-4 was > 10 µM (inactive) each time.

Turning to `S=C(N/N=C(\c1ccccc1)c1ccccn1)NC1CCCCC1`, the GI50 with HT-29 was 0.274 µM (active); in the test on SNB-19, 39.7 µM (inactive); with NCI/ADR-RES, 0.423 µM (active); in the test on A549, 13.9 µM (inactive); in the test on OVCAR-8, 0.34 µM (active); in the test with NCI-H460, 3.36 µM (inactive). The GI50 was 1.02 µM in the test on HCT-15; 1.4 µM (inactive) with EKVX; > 100 µM (inactive) in the test on HOP-92; 23.4 µM (inactive) in the test on BT-549; 1.6 µM (inactive) in the test on NCI-H23; 31.6 µM (inactive) with MDA-MB-435. The GI50 with HCT-116 was 0.566 µM (active); with SF-539, 3.08 µM (inactive); with OVCAR-4, 7.91 µM (inactive); in the test with RXF 393 it was > 100 µM (inactive); with SK-MEL-5 it was 13.1 µM (inactive); in the test with IGROV-1 it was 0.31 µM (active). The results for the GI50 with Malme-3M and in the test with MOLT-4 were 1.32 µM (inactive) and 0.54 µM (active), respectively.

With `O=c1[nH]c2cc([N+](=O)[O-])c(N/N=C/c3ccc(Cl)cc3Cl)c([N+](=O)[O-])c2[nH]1`, the GI50 in the test with HT-29 was > 100 µM (inactive); in the test with SNB-19 it was 64 µM (inactive); in the test with NCI/ADR-RES it was 15.5 µM (inactive); in the test with A549 it was 37.9 µM (inactive); with OVCAR-8, 20 µM (inactive); with NCI-H460, 83 µM (inactive). The GI50 in the test on HCT-15 is 40.3 µM; with EKVX it was > 100 µM (inactive); in the test on HOP-92 it was 32.9 µM (inactive); with BT-549, > 100 µM (inactive); in the test with NCI-H23 it was 71.3 µM (inactive); in the test with MDA-MB-435 it was 5.21 µM (inactive). Further, the GI50 was 25.7 µM (inactive) in the test with HCT-116; > 100 µM (inactive) in the test with SF-539; 13.6 µM (inactive) in the test with OVCAR-4; 18.2 µM (inactive) with RXF 393; > 100 µM (inactive) in the test on SK-MEL-5; 25.1 µM (inactive) with IGROV-1. The GI50 with Malme-3M was 31.2 µM (inactive); in the test with MOLT-4, 32.9 µM (inactive).

In the case of `CC1=NN(c2ccc(C)cc2)C2(C1)SCC(=O)N2c1nc2ccccc2s1` (stereo not given), the GI50 is 30.5 µM (inactive) in the test on HT-29; 33.1 µM (inactive) with SNB-19; 16.2 µM (inactive) in the test with NCI/ADR-RES; 31.5 µM (inactive) with A549; 31.6 µM (inactive) with OVCAR-8; 13.4 µM (inactive) in the test with NCI-H460. The GI50 with HCT-15 is 20.5 µM; in the test on EKVX, 21.9 µM (inactive); with HOP-92, 49.3 µM (inactive); with BT-549 it was 24.2 µM (inactive); in the test with NCI-H23, 24 µM (inactive); in the test with MDA-MB-435, 16.4 µM (inactive). The GI50 with HCT-116 was 17.8 µM (inactive); with SF-539, 19 µM (inactive); in the test on OVCAR-4, 20.2 µM (inactive); with RXF 393 it was 13.3 µM (inactive); with SK-MEL-5, 11.4 µM (inactive); with IGROV-1, 12.9 µM (inactive). The GI50 was 23.5 µM (inactive) in the test with Malme-3M and 9.66 µM (inactive) in the test with MOLT-4.

As for `Cc1cc(C)nc(NS(=O)(=O)c2ccc(NNC(=O)c3cccc4c(NNc5ccc(S(=O)(=O)Nc6nc(C)cc(C)n6)cc5)c5ccccc5nc34)cc2)n1`, the GI50 in the test with HT-29 was 21.8 µM (inactive); in the test with SNB-19 it was 24.5 µM (inactive); in the test on NCI/ADR-RES, 68.5 µM (inactive); with A549, 30.5 µM (inactive); in the test on OVCAR-8, 20.6 µM (inactive); in the test on NCI-H460 it was 20.6 µM (inactive). For the same molecule, the GI50 was 19.7 µM in the test on HCT-15; 18.7 µM (inactive) in the test with EKVX; 17.8 µM (inactive) in the test on HOP-92; 24.7 µM (inactive) with BT-549; 22.8 µM (inactive) in the test on NCI-H23; 20.9 µM (inactive) in the test with MDA-MB-435. For the same molecule, the GI50 in the test with HCT-116 is 22.9 µM (inactive); in the test on SF-539, 20.3 µM (inactive); with OVCAR-4, 23.3 µM (inactive); in the test with RXF 393, 20.8 µM (inactive); with SK-MEL-5 it was 16.9 µM (inactive); with IGROV-1, 20 µM (inactive). In addition, the GI50 with Malme-3M is 20.7 µM (inactive); in the test with MOLT-4, 26 µM (inactive).

Turning to `O=C1C(Cl)=C(Nc2ccc(S(=O)(=O)O)cc2)C(=O)c2ccccc21`, the GI50 was > 100 µM (inactive) with HT-29; 24.6 µM (inactive) in the test with SNB-19; > 100 µM (inactive) in the test on NCI/ADR-RES; 21.9 µM (inactive) in the test on A549; 30.1 µM (inactive) with OVCAR-8; 33.6 µM (inactive) in the test on NCI-H460. Further, the GI50 was 35.2 µM with HCT-15; 15.7 µM (inactive) in the test with EKVX; 17.3 µM (inactive) in the test with HOP-92; 76.2 µM (inactive) with BT-549; 37.7 µM (inactive) with NCI-H23; 21.7 µM (inactive) in the test with MDA-MB-435. The GI50 in the test on HCT-116 was 52.6 µM (inactive); in the test on SF-539, 19.9 µM (inactive); in the test with OVCAR-4 it was 38.5 µM (inactive); in the test on RXF 393 it was 19.7 µM (inactive); in the test with SK-MEL-5, 13.4 µM (inactive); in the test with IGROV-1, 20 µM (inactive). Besides, the results for the GI50 with Malme-3M and in the test on MOLT-4 were 20.1 µM (inactive) and 42.1 µM (inactive), respectively.

In the case of `COC(=O)Cc1ccc(Oc2nc3ccccc3nc2-c2cccs2)cc1`, the GI50 with HT-29 was > 100 µM (inactive); in the test on SNB-19, 40.8 µM (inactive); in the test with NCI/ADR-RES, 79.4 µM (inactive); in the test with A549, > 100 µM (inactive); with OVCAR-8 it was 36.4 µM (inactive); with NCI-H460, > 100 µM (inactive). The GI50 with HCT-15 was > 100 µM; with EKVX it was > 100 µM (inactive); in the test with HOP-92, 24.2 µM (inactive); with BT-549, 57.8 µM (inactive); in the test on NCI-H23, > 100 µM (inactive); in the test with MDA-MB-435, > 100 µM (inactive). Further, the GI50 in the test on HCT-116 was > 100 µM (inactive); in the test on SF-539 it was 52 µM (inactive); with OVCAR-4, > 100 µM (inactive); with RXF 393, 19.1 µM (inactive); in the test on SK-MEL-5, > 100 µM (inactive); with IGROV-1, > 100 µM (inactive). Moreover, the GI50 in the test with Malme-3M and in the test on MOLT-4 was > 100 µM (inactive) throughout.

For the molecule `Cc1cccc(CC(Cc2ccc(C)cc2C(=O)O)C(=O)O)c1` (stereo not given), the GI50 in the test on HT-29, with SNB-19, with NCI/ADR-RES, in the test on A549, in the test on OVCAR-8 and with NCI-H460 was > 100 µM (inactive) in each case. For the same molecule, the GI50 is > 100 µM in the test with HCT-15; > 100 µM (inactive) in the test with EKVX; > 100 µM (inactive) with HOP-92; > 100 µM (inactive) in the test on BT-549; > 100 µM (inactive) with NCI-H23; > 100 µM (inactive) with MDA-MB-435. Besides, the GI50 in the test on HCT-116, with SF-539, with OVCAR-4, with RXF 393, with SK-MEL-5 and in the test with IGROV-1 was > 100 µM (inactive) in each case. The GI50 with Malme-3M and in the test on MOLT-4 was > 100 µM (inactive) in each case.

As to `COc1ccc(-c2cc(-c3cc(F)c(Cl)cc3Cl)[nH]n2)cc1OC`, the GI50 in the test on HT-29 was 22.1 µM (inactive); in the test on SNB-19 it was 49.4 µM (inactive); with NCI/ADR-RES it was 25.1 µM (inactive); in the test with A549, 40.7 µM (inactive); with OVCAR-8, 34.4 µM (inactive); in the test with NCI-H460, 32.1 µM (inactive). Besides, the GI50 was 21.2 µM in the test with HCT-15; 22.2 µM (inactive) with EKVX; 20.6 µM (inactive) with HOP-92; 30.2 µM (inactive) with BT-549; 30 µM (inactive) in the test on NCI-H23; 46.2 µM (inactive) in the test on MDA-MB-435. The GI50 with HCT-116 was 25.7 µM (inactive); in the test with SF-539, 15.9 µM (inactive); in the test on OVCAR-4 it was 32.4 µM (inactive); in the test with RXF 393, 15.1 µM (inactive); in the test on SK-MEL-5 it was 17.1 µM (inactive); in the test on IGROV-1, 19.2 µM (inactive). Besides, the results for the GI50 in the test with Malme-3M and with MOLT-4 were 30.4 µM (inactive) and 14.5 µM (inactive), respectively.

Take `COC(=O)/N=[N+](\[O-])C(c1ccc(OC)cc1)C1CCCCC1` (stereo not given): the GI50 was 1.29 µM (inactive) in the test on HT-29; 9.53 µM (inactive) in the test with SNB-19; 2.11 µM (inactive) in the test on NCI/ADR-RES; 5.07 µM (inactive) in the test with A549; 4.75 µM (inactive) with OVCAR-8; 1.39 µM (inactive) in the test with NCI-H460. For the same molecule, the GI50 is 1.26 µM with HCT-15; 0.991 µM (active) in the test with EKVX; 5.85 µM (inactive) with HOP-92; 8.39 µM (inactive) in the test on BT-549; 0.664 µM (active) in the test on NCI-H23; 5.01 µM (inactive) with MDA-MB-435. In addition, the GI50 in the test with HCT-116 was 0.652 µM (active); with SF-539, 12.3 µM (inactive); with OVCAR-4 it was 0.802 µM (active); in the test with RXF 393, 9.18 µM (inactive); in the test with SK-MEL-5 it was 2.08 µM (inactive); in the test on IGROV-1, 4.18 µM (inactive). Moreover, the GI50 was 2.02 µM (inactive) in the test on Malme-3M and 2.87 µM (inactive) with MOLT-4.
